According to patent US20050113349A1, “2-Alpha vitamin D derivatives having substituents” (Hiroaki TAKAYAMA, priority 1999, published 2005):

The compounds below were run against T1, Vitamin D Receptor (VDR) (Bos taurus, UniProt Q28037) (assay: Assay for binding to vitamin D receptor (VDR), displacement of [3H]-1α,25-dihydroxyvitamin D3). Conditions: relative value with that of 1α,25-dihydroxyvitamin D3 taken as 100; bovine thymus receptor; [3H]-1α,25-dihydroxyvitamin D3 0.1 nM; overnight at 4° C.
T1 construct: Bovine thymus 1α,25-dihydroxyvitamin D3 receptor was purchased; purchased YAMASA SHOYU KABUSHIKI KAISHA lot.110431; host or cells: bovine thymus (tissue preparation)
T1 sequence (Q28037 1-426): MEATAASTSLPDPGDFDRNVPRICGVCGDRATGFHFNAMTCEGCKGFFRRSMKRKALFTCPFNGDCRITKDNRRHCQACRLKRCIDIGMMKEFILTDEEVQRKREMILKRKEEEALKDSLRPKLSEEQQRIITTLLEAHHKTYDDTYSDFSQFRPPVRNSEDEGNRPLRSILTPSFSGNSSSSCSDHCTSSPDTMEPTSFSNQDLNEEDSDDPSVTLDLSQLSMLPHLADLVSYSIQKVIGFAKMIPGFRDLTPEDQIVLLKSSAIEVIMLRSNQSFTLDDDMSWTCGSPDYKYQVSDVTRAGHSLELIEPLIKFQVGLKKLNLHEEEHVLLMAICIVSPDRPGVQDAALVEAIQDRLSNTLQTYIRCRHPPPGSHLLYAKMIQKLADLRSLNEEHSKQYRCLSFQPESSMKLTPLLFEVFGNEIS
Procedure: Assay for Binding to Vitamin D Receptor (VDR)
Bovine thymus 1α,25-dihydroxyvitamin D3 receptor was purchased from YAMASA SHOYU KABUSHIKI KAISHA (lot.110431) and 1 ampule (approximately 25 mg) of the receptor was dissolved in 55 mL of 0.05 M phosphate 0.5M potassium buffer (pH 7.4) just before use. Ethanol solutions (50 μl) of 1α,25-dihydroxyvitamin D3 and Compounds 31-35 of the present invention at various concentrations were prepared, mixed with aliquots (500 μl, 0.23 mg protein) of the receptor solution and pre-incubated at room temperature for 1 hour. To the resultant mixtures, [^3H]-1α,25-dihydroxyvitamin D3 was added at the final concentration of 0.1 nM, followed by incubation overnight at 4° C.
The reaction mixtures were treated with dextran coated charcoal for 30 minutes at 4° C. to separate the bound and free forms of [^3H]-1α,25-dihydroxyvitamin D3, and centrifuged at 3000 rpm for ten minutes. Each of the resultant supernatants (500 μl) was mixed with ACS-II (9.5 ml) (AMERSHAM, England) for radioactivity measurement.
The binding properties of Compounds 31-35 of the present invention were expressed in relative values with that of 1α,25-dihydroxyvitamin D3 taken as 100.

| Compound | Binding property |
| --- | --- |
| C=C1C(=CC=C2CCCC3(C)C2CCC3C(C)CCCC(C)(C)O)CC(O)C(CCO)C1O [Compound 32, (5Z,7E)-(1S,2S,3R,20R)-9,10-seco-5,7,10(19)-cholestatriene-2-(2′-hydroxyethyl)-1,3,25-triol] | 70 |
| C=C1/C(=C\C=C2/CCC[C@]3(C)[C@@H]([C@H](C)CCCC(C)(C)O)CC[C@@H]23)C[C@@H](O)[C@H](CC)[C@@H]1O [Compound 34, (5Z,7E)-(1S,2S,3R,20R)-9,10-seco-5,7,10(19)-cholestatriene-2-ethyl-1,3,25-triol] | 40 |
| (5Z,7E)-(1S,2S,3R,20R)-9,10-seco-5,7,10(19)-cholestatriene-2-hydroxymethyl-1,3,25-triol [Compound 31] | 20 |

More lines, now with the values ahead:

| Binding property | Compound |
| --- | --- |
| 20 | C=C1C(=CC=C2CCCC3(C)C2CCC3C(C)CCCC(C)(C)O)CC(O)C(CCC)C1O [Compound 35, (5Z,7E)-(1S,2S,3R,20R)-9,10-seco-5,7,10(19)-cholestatriene-2-propyl-1,3,25-triol] |
| 300 | (5Z,7E)-(1S,2S,3R,20R)-9,10-seco-5,7,10(19)-cholestatriene-2-(3′-hydroxypropyl)-1,3,25-triol [Compound 33] |
